Measurements taken from US12295936B2, “Immunomodulating urea azalides” (Zoetis Services LLC, priority 2020, dated 2025).

These compounds were tested on BRD pathogens, M. haemolytica and P. multocida (assay: MIC screening panel of BRD pathogens (antibacterial / non-antibacterial)). Settings: read-out: antibacterial / non-antibacterial (MIC for the BRD pathogens).

| Compound | MIC |
| --- | --- |
| CC[C@H]1OC(=O)[C@H](C)[C@@H](O)[C@H](C)[C@@H](O[C@@H]2O[C@H](C)C[C@H](N(C)C(=O)Nc3ccc(Cl)cc3)[C@H]2O)[C@](C)(O)C[C@@H](C)CN[C@H](C)[C@@H](O)[C@]1(C)O [Example A-19, 3-(4-chlorophenyl)-1-((2S,3R,4S,6R)-2-(((2R,3S,4R,5R,8R,10R,11R,12S,13S,14R)-2-ethyl-3,4,10,13-tetrahydroxy-3,5,8,10,12,14-hexamethyl-15-oxo-1-oxa-6-azacyclopentadecan-11-yl)oxy)-3-hydroxy-6-methyltetrahydro-2H-pyran-4-yl)-1-methylurea] | > 64 µg/mL |
| CC[C@H]1OC(=O)[C@H](C)[C@@H](O[C@H]2C[C@@](C)(OC)[C@](O)(CC#N)[C@H](C)O2)[C@H](C)[C@@H](O[C@@H]2O[C@H](C)C[C@H](N(C)C(=O)N(C)c3ccc(C(F)(F)F)cc3)[C@H]2O)[C@](C)(O)C[C@@H](C)CN[C@H](C)[C@@H](O)[C@]1(C)O [Example G-3, 1-((2S,3R,4S,6R)-2-(((2R,3S,4R,5R,8R,10R,11R,12S,13S,14R)-13-(((2R,4R,5S,6S)-5-(cyanomethyl)-5-hydroxy-4-methoxy-4,6-dimethyltetrahydro-2H-pyran-2-yl)oxy)-2-ethyl-3,4,10-trihydroxy-3,5,8,10,12,14-hexamethyl-15-oxo-1-oxa-6-azacyclopentadecan-11-yl)oxy)-3-hydroxy-6-methyltetrahydro-2H-pyran-4-yl)-1,3-dimethyl-3-(4-(trifluoromethyl)phenyl)urea] | > 64 µg/mL |
| CC[C@H]1OC(=O)[C@H](C)[C@@H](O)[C@H](C)[C@@H](O[C@@H]2O[C@H](C)C[C@H](N(C)C(=O)Nc3cccc(Cl)c3)[C@H]2O)[C@](C)(O)C[C@@H](C)CN[C@H](C)[C@@H](O)[C@]1(C)O [Example A-23, 3-(3-chlorophenyl)-1-((2S,3R,4S,6R)-2-(((2R,3S,4R,5R,8R,10R,11R,12S,13S,14R)-2-ethyl-3,4,10,13-tetrahydroxy-3,5,8,10,12,14-hexamethyl-15-oxo-1-oxa-6-azacyclopentadecan-11-yl)oxy)-3-hydroxy-6-methyltetrahydro-2H-pyran-4-yl)-1-methylurea] | > 64 µg/mL |
| CC[C@H]1OC(=O)[C@H](C)[C@@H](O[C@H]2C[C@@](C)(OC)[C@](O)(CN=[N+]=[N-])[C@H](C)O2)[C@H](C)[C@@H](O[C@@H]2O[C@H](C)C[C@H](N(C)C(=O)Nc3ccccc3)[C@H]2O)[C@](C)(O)C[C@@H](C)CN[C@H](C)[C@@H](O)[C@]1(C)O [Example F-1, 1-((2S,3R,4S,6R)-2-(((2R,3S,4R,5R,8R,10R,11R,12S,13S,14R)-13-(((2R,4R,5S,6S)-5-(azidomethyl)-5-hydroxy-4-methoxy-4,6-dimethyltetrahydro-2H-pyran-2-yl)oxy)-2-ethyl-3,4,10-trihydroxy-3,5,8,10,12,14-hexamethyl-15-oxo-1-oxa-6-azacyclopentadecan-11-yl)oxy)-3-hydroxy-6-methyltetrahydro-2H-pyran-4-yl)-1-methyl-3-phenylurea] | > 64 µg/mL |
| CC[C@H]1OC(=O)[C@H](C)[C@@H](O)[C@H](C)[C@@H](O[C@@H]2O[C@H](C)C[C@H](N(C)C(=O)Nc3cccc(C#N)c3)[C@H]2O)[C@](C)(O)C[C@@H](C)CN[C@H](C)[C@@H](O)[C@]1(C)O [Example A-11, 3-(3-cyanophenyl)-1-((2S,3R,4S,6R)-2-(((2R,3S,4R,5R,8R,10R,11R,12S,13S,14R)-2-ethyl-3,4,10,13-tetrahydroxy-3,5,8,10,12,14-hexamethyl-15-oxo-1-oxa-6-azacyclopentadecan-11-yl)oxy)-3-hydroxy-6-methyltetrahydro-2H-pyran-4-yl)-1-methylurea] | > 64 µg/mL |
| CC[C@H]1OC(=O)[C@H](C)[C@@H](O)[C@H](C)[C@@H](O[C@@H]2O[C@H](C)C[C@H](N(C)C(=O)Nc3cccc(F)c3)[C@H]2O)[C@](C)(O)C[C@@H](C)CN[C@H](C)[C@@H](O)[C@]1(C)O [Example A-20, 1-((2S,3R,4S,6R)-2-(((2R,3S,4R,5R,8R,10R,11R,12S,13S,14R)-2-ethyl-3,4,10,13-tetrahydroxy-3,5,8,10,12,14-hexamethyl-15-oxo-1-oxa-6-azacyclopentadecan-11-yl)oxy)-3-hydroxy-6-methyltetrahydro-2H-pyran-4-yl)-3-(3-fluorophenyl)-1-methylurea] | > 64 µg/mL |
| CC[C@H]1OC(=O)[C@H](C)[C@@H](O)[C@H](C)[C@@H](O[C@@H]2O[C@H](C)C[C@H](N(C)C(=O)Nc3ccccc3C)[C@H]2O)[C@](C)(O)C[C@@H](C)CN[C@H](C)[C@@H](O)[C@]1(C)O [Example A-14, 1-((2S,3R,4S,6R)-2-(((2R,3S,4R,5R,8R,10R,11R,12S,13S,14R)-2-ethyl-3,4,10,13-tetrahydroxy-3,5,8,10,12,14-hexamethyl-15-oxo-1-oxa-6-azacyclopentadecan-11-yl)oxy)-3-hydroxy-6-methyltetrahydro-2H-pyran-4-yl)-1-methyl-3-(o-tolyl)urea] | > 64 µg/mL |
| CC[C@H]1OC(=O)[C@H](C)[C@@H](O)[C@H](C)[C@@H](O[C@@H]2O[C@H](C)C[C@H](N(C)C(=O)Nc3ccccc3F)[C@H]2O)[C@](C)(O)C[C@@H](C)CN[C@H](C)[C@@H](O)[C@]1(C)O [Example A-17, 1-((2S,3R,4S,6R)-2-(((2R,3S,4R,5R,8R,10R,11R,12S,13S,14R)-2-ethyl-3,4,10,13-tetrahydroxy-3,5,8,10,12,14-hexamethyl-15-oxo-1-oxa-6-azacyclopentadecan-11-yl)oxy)-3-hydroxy-6-methyltetrahydro-2H-pyran-4-yl)-3-(2-fluorophenyl)-1-methylurea] | > 64 µg/mL |
| CC[C@H]1OC(=O)[C@H](C)[C@@H](O)[C@H](C)[C@@H](O[C@@H]2O[C@H](C)C[C@H](N(C)C(=O)Nc3cccnc3)[C@H]2O)[C@](C)(O)C[C@@H](C)CN[C@H](C)[C@@H](O)[C@]1(C)O [Example A-4, 1-((2S,3R,4S,6R)-2-(((2R,3S,4R,5R,8R,10R,11R,12S,13S,14R)-2-ethyl-3,4,10,13-tetrahydroxy-3,5,8,10,12,14-hexamethyl-15-oxo-1-oxa-6-azacyclopentadecan-11-yl)oxy)-3-hydroxy-6-methyltetrahydro-2H-pyran-4-yl)-1-methyl-3-(pyridin-3-yl)urea] | > 64 µg/mL |
| CCCNC[C@]1(O)[C@H](C)O[C@@H](O[C@H]2[C@H](C)[C@@H](O[C@@H]3O[C@H](C)C[C@H](N(C)C(=O)N(C)c4cccnc4)[C@H]3O)[C@](C)(O)C[C@@H](C)CN[C@H](C)[C@@H](O)[C@](C)(O)[C@@H](CC)OC(=O)[C@@H]2C)C[C@@]1(C)OC [Example H-53, 1-((2S,3R,4S,6R)-2-(((2R,3S,4R,5R,8R,10R,11R,12S,13S,14R)-2-ethyl-3,4,10-trihydroxy-13-(((2R,4R,5S,6S)-5-hydroxy-4-methoxy-4,6-dimethyl-5-((propylamino)methyl)tetrahydro-2H-pyran-2-yl)oxy)-3,5,8,10,12,14-hexamethyl-15-oxo-1-oxa-6-azacyclopentadecan-11-yl)oxy)-3-hydroxy-6-methyltetrahydro-2H-pyran-4-yl)-1,3-dimethyl-3-(pyridin-3-yl)urea] | > 64 µg/mL |
| CC[C@H]1OC(=O)[C@H](C)[C@@H](O[C@H]2C[C@@](C)(OC)[C@@H](O)[C@H](C)O2)[C@H](C)[C@@H](O[C@@H]2O[C@H](C)C[C@H](N(C)C(=O)NC(C)(C)C)[C@H]2O)[C@](C)(O)C[C@@H](C)CN(C)[C@H](C)[C@@H](O)[C@]1(C)O [Example B-11, 3-(tert-butyl)-1-((2S,3R,4S,6R)-2-(((2R,3S,4R,5R,8R,10R,11R,12S,13S,14R)-2-ethyl-3,4,10-trihydroxy-13-(((2R,4R,5S,6S)-5-hydroxy-4-methoxy-4,6-dimethyltetrahydro-2H-pyran-2-yl)oxy)-3,5,6,8,10,12,14-heptamethyl-15-oxo-1-oxa-6-azacyclopentadecan-11-yl)oxy)-3-hydroxy-6-methyltetrahydro-2H-pyran-4-yl)-1-methylurea] | > 64 µg/mL |
| CCCNC[C@]1(O)[C@H](C)O[C@@H](O[C@H]2[C@H](C)[C@@H](O[C@@H]3O[C@H](C)C[C@H](N(C)C(=O)Nc4cccc(OC)c4)[C@H]3O)[C@](C)(O)C[C@@H](C)CN[C@H](C)[C@@H](O)[C@](C)(O)[C@@H](CC)OC(=O)[C@@H]2C)C[C@@]1(C)OC [Example H-86, 1-((2S,3R,4S,6R)-2-(((2R,3S,4R,5R,8R,10R,11R,12S,13S,14R)-2-ethyl-3,4,10-trihydroxy-13-(((2R,4R,5S,6S)-5-hydroxy-4-methoxy-4,6-dimethyl-5-((propylamino)methyl)tetrahydro-2H-pyran-2-yl)oxy)-3,5,8,10,12,14-hexamethyl-15-oxo-1-oxa-6-azacyclopentadecan-11-yl)oxy)-3-hydroxy-6-methyltetrahydro-2H-pyran-4-yl)-3-(3-methoxyphenyl)-1-methylurea] | > 64 µg/mL |
| CCCNC[C@]1(O)[C@H](C)O[C@@H](O[C@H]2[C@H](C)[C@@H](O[C@@H]3O[C@H](C)C[C@H](N(C)C(=O)NCCN(C)C)[C@H]3O)[C@](C)(O)C[C@@H](C)CN[C@H](C)[C@@H](O)[C@](C)(O)[C@@H](CC)OC(=O)[C@@H]2C)C[C@@]1(C)OC [Example H-6, 3-(2-(dimethylamino)ethyl)-1-((2S,3R,4S,6R)-2-(((2R,3S,4R,5R,8R,10R,11R,12S,13S,14R)-2-ethyl-3,4,10-trihydroxy-13-(((2R,4R,5S,6S)-5-hydroxy-4-methoxy-4,6-dimethyl-5-((propylamino)methyl)tetrahydro-2H-pyran-2-yl)oxy)-3,5,8,10,12,14-hexamethyl-15-oxo-1-oxa-6-azacyclopentadecan-11-yl)oxy)-3-hydroxy-6-methyltetrahydro-2H-pyran-4-yl)-1-methylurea] | > 64 µg/mL |
